Columns and labels:
[1] = target: recombinant Dictyostelium miozin (Dictyostelium) (Dictyostelium discoideum, UniProt P08799); assay: actomyosin steady state ATPase measurement, Dictyostelium myosin; assay type: biochemical; settings: for IC50: concentration required for semi-maximal inhibition of ATPase, read-out: IC50 (μM) Dicty; for Inhibition (%) Dicty: maximum inhibition, compounds in IC50 range 1-11 μM; for % inhibition. complete Dicty: maximum value of inhibition of ATPase activity; for inhibition at 5 µM: read-out: % inhibition at 5 μM (or 10 μM if racemate) Dicty; for inhibition at 50 µM: read-out: % inhibition at 50 μM (or 100 μM if racemate) Dicty
Chain of recombinant Dictyostelium miozin (Dictyostelium) (P08799 whole entry): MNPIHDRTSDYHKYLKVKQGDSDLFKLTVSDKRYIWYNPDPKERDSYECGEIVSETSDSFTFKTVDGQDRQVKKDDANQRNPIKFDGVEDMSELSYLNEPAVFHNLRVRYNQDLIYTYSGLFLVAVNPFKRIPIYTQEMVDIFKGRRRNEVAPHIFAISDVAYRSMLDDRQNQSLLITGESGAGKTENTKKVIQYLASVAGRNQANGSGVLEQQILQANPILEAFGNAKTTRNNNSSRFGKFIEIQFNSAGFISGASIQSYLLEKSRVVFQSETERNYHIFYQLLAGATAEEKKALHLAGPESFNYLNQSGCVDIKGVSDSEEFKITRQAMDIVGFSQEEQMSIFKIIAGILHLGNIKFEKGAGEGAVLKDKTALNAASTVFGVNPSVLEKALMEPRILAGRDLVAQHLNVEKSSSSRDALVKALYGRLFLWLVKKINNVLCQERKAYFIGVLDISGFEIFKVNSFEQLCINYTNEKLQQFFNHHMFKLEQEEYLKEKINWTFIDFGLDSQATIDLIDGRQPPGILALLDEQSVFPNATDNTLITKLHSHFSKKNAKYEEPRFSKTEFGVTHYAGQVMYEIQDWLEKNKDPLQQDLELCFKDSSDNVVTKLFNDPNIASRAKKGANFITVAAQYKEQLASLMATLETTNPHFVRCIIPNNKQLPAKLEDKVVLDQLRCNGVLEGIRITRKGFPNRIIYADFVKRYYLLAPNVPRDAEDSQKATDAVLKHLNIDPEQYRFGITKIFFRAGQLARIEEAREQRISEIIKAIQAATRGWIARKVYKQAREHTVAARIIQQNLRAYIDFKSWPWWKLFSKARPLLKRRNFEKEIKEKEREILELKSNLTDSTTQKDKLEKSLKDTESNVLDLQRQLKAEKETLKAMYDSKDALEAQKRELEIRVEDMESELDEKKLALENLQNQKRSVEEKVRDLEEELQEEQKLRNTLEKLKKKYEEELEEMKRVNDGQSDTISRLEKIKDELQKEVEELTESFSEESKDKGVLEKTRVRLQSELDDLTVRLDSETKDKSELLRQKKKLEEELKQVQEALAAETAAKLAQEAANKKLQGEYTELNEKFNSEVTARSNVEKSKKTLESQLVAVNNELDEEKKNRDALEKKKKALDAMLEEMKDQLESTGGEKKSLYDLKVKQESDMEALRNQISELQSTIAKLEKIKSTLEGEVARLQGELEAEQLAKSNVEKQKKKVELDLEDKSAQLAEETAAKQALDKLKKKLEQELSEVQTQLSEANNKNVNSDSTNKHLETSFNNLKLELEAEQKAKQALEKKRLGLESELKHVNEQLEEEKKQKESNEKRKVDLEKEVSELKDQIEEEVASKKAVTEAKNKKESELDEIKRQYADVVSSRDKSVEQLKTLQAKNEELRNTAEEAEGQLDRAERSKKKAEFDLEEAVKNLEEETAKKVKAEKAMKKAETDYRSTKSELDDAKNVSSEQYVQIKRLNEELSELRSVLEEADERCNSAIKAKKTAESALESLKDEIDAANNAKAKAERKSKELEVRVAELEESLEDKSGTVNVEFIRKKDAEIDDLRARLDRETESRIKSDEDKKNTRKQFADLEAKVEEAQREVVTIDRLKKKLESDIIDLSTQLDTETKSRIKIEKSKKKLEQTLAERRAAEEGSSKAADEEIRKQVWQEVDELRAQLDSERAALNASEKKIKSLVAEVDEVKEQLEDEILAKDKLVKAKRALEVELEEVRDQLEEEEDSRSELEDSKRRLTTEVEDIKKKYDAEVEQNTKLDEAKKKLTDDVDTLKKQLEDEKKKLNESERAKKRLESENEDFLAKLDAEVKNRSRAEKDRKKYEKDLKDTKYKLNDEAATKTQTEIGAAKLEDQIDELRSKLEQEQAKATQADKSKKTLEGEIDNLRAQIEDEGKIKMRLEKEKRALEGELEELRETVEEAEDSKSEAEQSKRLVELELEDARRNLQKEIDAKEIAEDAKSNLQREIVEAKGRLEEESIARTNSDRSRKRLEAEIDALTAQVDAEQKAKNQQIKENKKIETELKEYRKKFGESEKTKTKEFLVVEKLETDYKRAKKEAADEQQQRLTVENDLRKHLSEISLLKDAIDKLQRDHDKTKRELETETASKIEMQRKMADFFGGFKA
From the text: (§1) […]; (ii) the concentration required for semi-maximal inhibition.

[2] = target: recombinant human non-muscle myosin 2 NM2C (Homo sapiens, UniProt Q7Z406); assay: actomyosin steady state ATPase measurement, NM2C; assay type: biochemical; settings: for IC50: concentration required for semi-maximal inhibition of ATPase; for % inhibition. complete NM2C: maximum value of inhibition of ATPase activity; for inhibition at 5 µM: read-out: % inhibition at 5 μM (or 10 μM if racemate) NM2C, 5 μM (10 μM if racemate); for inhibition at 5 µM / inhibition at 50 µM: ATPase activity; for inhibition at 50 µM: read-out: % inhibition at 50 μM (or 100 μM if racemate) NM2C, 50 μM (100 μM if racemate)
From the text: as §1

[3] = target: T1, isolated porcine cardiac ventricular myocardium (cardiac) (Sus scrofa, UniProt P79293); assay: actomyosin steady state ATPase measurement, cardiac myosin; assay type: biochemical; settings: for IC50: concentration required for semi-maximal inhibition of ATPase; for % inhibition. complete cardiac: maximum value of inhibition of ATPase activity; for inhibition at 5 µM: read-out: % inhibition at 5 μM (or 10 μM if racemate) cardiac, 5 μM (10 μM if racemate); for inhibition at 5 µM / inhibition at 50 µM: ATPase activity; for inhibition at 50 µM: read-out: % inhibition at 50 μM (or 100 μM if racemate) cardiac, 50 μM (100 μM if racemate)
T1 construct: isolated porcine cardiac ventricular myocardium (cardiac); from tissue; host or cells: porcine cardiac ventricle
From the text: as §1

[4] = system: isolated rabbit skeletal muscle myosin (skeletal); assay: actomyosin steady state ATPase measurement, skeletal muscle myosin; assay type: biochemical; settings: for % inhibition at 5 μM (or 10 μM if racemate) Skeletal: 5 μM (10 μM if racemate); for % inhibition at 5 μM (or 10 μM if racemate) Skeletal / % inhibition at 50 μM (or 100 μM if racemate) Skeletal: ATPase activity; for % inhibition at 50 μM (or 100 μM if racemate) Skeletal: 50 μM (100 μM if racemate); for IC50: concentration required for semi-maximal inhibition of ATPase; for % inhibition. complete Skeletal: maximum value of inhibition of ATPase activity
From the text: as §1

[5] = target: isolated smooth muscle myosin (UniProt P10587); assay type: biochemical, chamois; settings: concentration required for semi-maximal inhibition of ATPase
From the text: (ii) the concentration required for semi-maximal inhibition.

M. quadriceps femoris = assay: isometric force measurement of live, anesthetized rat M. quadriceps femoris due to electrical stimulation; assay type: in vivo
Procedure: The maximum isometric force induced by the stimulation was determined after intraperitoneal injection of some of the compounds of the invention. During the measurement, the following parameters of live anesthetized rats were continuously monitored: • a) heart rate • b) blood flow in the neck arteries • c) respiratory frequency • d) blood oxygen saturation ratio Results from live anesthetized rats are summarized in the table below.

[6] = vital parameters of live anesthetized rats monitored during isometric force measurement; assay type: in vivo; settings: anesthetized rat; for Maximum change of vital parameters (%) blood flow: neck arteries
Procedure: The maximum isometric force induced by the stimulation was determined after intraperitoneal injection of some of the compounds of the invention. During the measurement, the following parameters of live anesthetized rats were continuously monitored: • a) heart rate • b) blood flow in the neck arteries • c) respiratory frequency • d) blood oxygen saturation ratio

[7] = target: isolated smooth muscle myosin (UniProt P10587); assay type: biochemical, chamois; settings: for % inhibition at 5 μM (or 10 μM if racemate) Smooth: 5 μM (10 μM if racemate); for % inhibition at 5 μM (or 10 μM if racemate) Smooth / % inhibition at 50 μM (or 100 μM if racemate) Smooth: ATPase activity; for % inhibition at 50 μM (or 100 μM if racemate) Smooth: 50 μM (100 μM if racemate); for % inhibition. complete Smooth: maximum value of inhibition of ATPase activity
[8] = target: recombinant human non-muscle myosin 2 NM2A (Homo sapiens, UniProt P35579); assay: actomyosin steady state ATPase measurement, NM2A; assay type: biochemical; settings: for IC50: concentration required for semi-maximal inhibition of ATPase; for % inhibition. complete NM2A: maximum value of inhibition of ATPase activity; for inhibition at 5 µM: read-out: % inhibition at 5 μM (or 10 μM if racemate) NM2A, 5 μM (10 μM if racemate); for inhibition at 5 µM / inhibition at 50 µM: ATPase activity; for inhibition at 50 µM: read-out: % inhibition at 50 μM (or 100 μM if racemate) NM2A, 50 μM (100 μM if racemate)
Chain of recombinant human non-muscle myosin 2 NM2A (P35579 whole entry): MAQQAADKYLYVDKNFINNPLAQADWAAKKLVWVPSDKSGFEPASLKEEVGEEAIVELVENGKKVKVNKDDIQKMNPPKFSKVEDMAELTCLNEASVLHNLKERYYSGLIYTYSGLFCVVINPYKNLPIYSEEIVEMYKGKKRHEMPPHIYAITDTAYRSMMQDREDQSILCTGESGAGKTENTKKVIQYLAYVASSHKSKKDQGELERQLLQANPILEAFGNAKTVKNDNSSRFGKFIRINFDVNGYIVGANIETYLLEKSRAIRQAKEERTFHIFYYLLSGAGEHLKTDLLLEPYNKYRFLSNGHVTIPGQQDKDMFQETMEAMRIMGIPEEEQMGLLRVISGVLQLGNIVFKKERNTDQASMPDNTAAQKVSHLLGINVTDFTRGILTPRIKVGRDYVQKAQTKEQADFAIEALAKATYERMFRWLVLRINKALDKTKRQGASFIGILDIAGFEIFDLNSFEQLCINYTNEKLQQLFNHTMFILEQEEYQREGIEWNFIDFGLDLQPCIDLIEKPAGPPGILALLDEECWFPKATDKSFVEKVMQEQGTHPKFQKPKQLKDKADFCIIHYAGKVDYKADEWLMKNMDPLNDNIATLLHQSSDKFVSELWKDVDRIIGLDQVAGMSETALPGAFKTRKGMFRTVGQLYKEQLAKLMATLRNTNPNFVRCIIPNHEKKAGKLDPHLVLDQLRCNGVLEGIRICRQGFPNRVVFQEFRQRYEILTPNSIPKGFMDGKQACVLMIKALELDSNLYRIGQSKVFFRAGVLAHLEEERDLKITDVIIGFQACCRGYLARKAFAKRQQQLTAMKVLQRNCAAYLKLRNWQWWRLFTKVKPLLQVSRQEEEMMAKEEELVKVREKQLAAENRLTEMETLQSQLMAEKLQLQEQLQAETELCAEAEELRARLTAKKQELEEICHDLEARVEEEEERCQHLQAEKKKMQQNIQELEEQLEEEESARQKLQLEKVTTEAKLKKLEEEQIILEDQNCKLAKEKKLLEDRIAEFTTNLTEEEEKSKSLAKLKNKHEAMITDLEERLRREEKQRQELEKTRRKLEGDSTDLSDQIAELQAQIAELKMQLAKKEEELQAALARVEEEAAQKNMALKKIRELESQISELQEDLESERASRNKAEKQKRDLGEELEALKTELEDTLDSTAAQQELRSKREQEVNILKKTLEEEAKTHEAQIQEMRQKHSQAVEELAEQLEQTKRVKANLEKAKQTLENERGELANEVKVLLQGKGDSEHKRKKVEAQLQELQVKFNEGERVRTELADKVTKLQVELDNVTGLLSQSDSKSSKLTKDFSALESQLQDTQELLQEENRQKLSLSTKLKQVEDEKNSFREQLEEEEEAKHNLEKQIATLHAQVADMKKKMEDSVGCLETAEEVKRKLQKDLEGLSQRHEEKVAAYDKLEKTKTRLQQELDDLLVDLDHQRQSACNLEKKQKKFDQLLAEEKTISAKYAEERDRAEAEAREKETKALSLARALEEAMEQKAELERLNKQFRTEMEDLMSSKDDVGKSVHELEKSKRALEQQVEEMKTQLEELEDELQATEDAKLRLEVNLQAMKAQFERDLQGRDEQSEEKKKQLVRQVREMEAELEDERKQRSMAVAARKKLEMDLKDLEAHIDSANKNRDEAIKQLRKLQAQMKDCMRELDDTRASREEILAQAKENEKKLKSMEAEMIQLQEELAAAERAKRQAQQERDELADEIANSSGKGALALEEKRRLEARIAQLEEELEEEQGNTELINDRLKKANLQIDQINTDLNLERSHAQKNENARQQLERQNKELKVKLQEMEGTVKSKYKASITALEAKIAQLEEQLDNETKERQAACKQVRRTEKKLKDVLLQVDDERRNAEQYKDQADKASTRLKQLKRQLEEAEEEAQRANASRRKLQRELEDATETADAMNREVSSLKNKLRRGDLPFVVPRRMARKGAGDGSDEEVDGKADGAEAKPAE
From the text: as §1

[9] = solubility in PBS in the presence of 1% DMSO; assay type: physicochemical; settings: phosphate buffered saline with 1% DMSO, aqueous buffer, kinetic from dmso stock, PBS w/o Mg, Ca
[10] = target: recombinant human non-muscle myosin 2 NM2B (Homo sapiens, UniProt P35580); assay: actomyosin steady state ATPase measurement, NM2B; assay type: biochemical
From the text: as §1

SMILES	IC50 [1] [µM]	% inhibition. complete Dicty [1] [%]	inhibition at 5 µM [1] [%]	inhibition at 50 µM [1] [%]	IC50 [2] [µM]	% inhibition. complete NM2C [2] [%]	inhibition at 5 µM [2] [%]	inhibition at 50 µM [2] [%]	IC50 [3] [µM]	% inhibition. complete cardiac [3] [%]	inhibition at 5 µM [3] [%]	inhibition at 50 µM [3] [%]	% inhibition at 5 μM (or 10 μM if racemate) Skeletal [4] [%]	% inhibition at 50 μM (or 100 μM if racemate) Skeletal [4] [%]	IC50 [4] [µM]	% inhibition. complete Skeletal [4] [%]	IC50 [5] [µM]	% inhibition at 5 μM (or 10 μM if racemate) Smooth [7] [%]	% inhibition at 50 μM (or 100 μM if racemate) Smooth [7] [%]	% inhibition. complete Smooth [7] [%]	also measured
O=C1c2ccncc2N=C2N(c3ccc(OC(F)(F)F)cc3)CCC12O (stereo not drawn) [Compound 238, 3a-Hydroxy-1-[4-(trifluoromethoxy)phenyl]-1H,2H,3H,3aH,4H-pyrrolo[2,3-b]1,7-naphthyridin-4-one]	3.5	41	24	38	2.1	40	27	38	59	100	2	47	80	93	0.95	96	6.3	13	28	31	Inhibition (%) Dicty [1]: 41%; Maximum change in isometric force at rear leg (%) (M. quadriceps femoris; 6 mg i.p.): 40%; Maximum change of vital parameters (%) heart rate ([6]; 6 mg i.p.): 3%; Maximum change of vital parameters (%) oxygen saturation ([6]; 6 mg i.p.): −12%; Maximum change of vital parameters (%) respiratory frequency ([6]; 6 mg i.p.): −18%; Maximum change of vital parameters (%) blood flow ([6]; 6 mg i.p.): −10%
N#Cc1ccc(N2CC[C@@]3(O)C(=O)c4ccsc4N=C23)cc1 [Compound 213, (9S)-4-{9-Hydroxy-8-oxo-4-thia-2,12-diazatricyclo[7.3.0.0^3,7]dodeca-1,3(7),5-trien-12-yl}benzonitrile]	3.5	87	50	81	8	63	22	54	1.8	87	61	84	89	98	0.58	99	18	16	57	78	Inhibition (%) Dicty [1]: 87%; IC50 [8]: 23 µM; % inhibition. complete NM2A [8]: 74%; inhibition at 5 µM [8]: 13%; inhibition at 50 µM [8]: 51%; solubility [9]: 410 µM
Cc1cc2c(s1)N=C1N(c3ccc(OC(F)(F)F)cc3)CCC1(O)C2=O (stereo not drawn) [Compound 223, 9-Hydroxy-5-methyl-12-[4-(trifluoromethoxy)phenyl]-4-thia-2,12-diazatricyclo[7.3.0.0^3,7]dodeca-1,3(7),5-trien-8-one]	11.1	100	21	96	3	88	52	82	2.2	98	68	93	95	95	0.012	95	1.1	79	99	100	Maximum change in isometric force at rear leg (%) (M. quadriceps femoris; 0.2 mg i.p.): 23%; Maximum change in isometric force at rear leg (%) (M. quadriceps femoris; 1 mg i.p.): 25%; Maximum change of vital parameters (%) heart rate ([6]; 0.2 mg i.p.): 5%; Maximum change of vital parameters (%) oxygen saturation ([6]; 0.2 mg i.p.): −10%; Maximum change of vital parameters (%) respiratory frequency ([6]; 0.2 mg i.p.): −13%; Maximum change of vital parameters (%) blood flow ([6]; 0.2 mg i.p.): 8%; Maximum change of vital parameters (%) heart rate ([6]; 1 mg i.p.): 19%; Maximum change of vital parameters (%) oxygen saturation ([6]; 1 mg i.p.): −7%; Maximum change of vital parameters (%) respiratory frequency ([6]; 1 mg i.p.): −22%; Maximum change of vital parameters (%) blood flow ([6]; 1 mg i.p.): 25%
Cc1cc2c(s1)N=C1N(c3ccccc3)CCC1(O)C2=O (stereo not drawn) [Compound 198, 9-Hydroxy-5-methyl-12-phenyl-4-thia-2,12-diazatricyclo[7.3.0.0^3,7]dodeca-1,3(7),5-trien-8-one]	5	100	51	96	6.8	100	51	84	4	100	64	89	90	99	1	100	7.6	44	88	100	IC50 [8]: 15 µM; % inhibition. complete NM2A [8]: 100%; inhibition at 5 µM [8]: 26%; inhibition at 50 µM [8]: 79%; IC50 ([10]; concentration required for semi-maximal inhibition of ATPase): 15.1 µM; % inhibition. complete NM2B ([10]; maximum value of inhibition of ATPase activity): 100%; inhibition at 5 µM ([10]; read-out: % inhibition at 5 μM (or 10 μM if racemate) NM2B, 5 μM (10 μM if racemate), ATPase activity): 24%; inhibition at 50 µM ([10]; read-out: % inhibition at 50 μM (or 100 μM if racemate) NM2B, 50 μM (100 μM if racemate), ATPase activity): 80%; Inhibition (%) cardiac ([3]; maximum inhibition, compounds in IC50 range 3-6 μM): 100%
